US20240268395A1, “ANTIFUNGAL PROTEIN COMPOSITION” (GEAENZYMES CO., priority 2019, published 2024)
Ends that are not written are not given here.

Tests used:
[1] = test system: Trichoderma reesei, Fusarium oxysporum, Rhizopus oligosporum, Aspergillus niger and two environmental isolates; assay: Fungal inhibition in agar plates containing embedded antifungal peptides; assay type: cell-based; conditions: 150 μg/ml, without carrier protein
Experimental: FIG. 1. Fungal inhibition in agar plates containing a composition comprising Antifungal Peptide SEQ ID NO: 1 after 2 days at 30° C. Fungal strains inoculated in the plate: 1: Trichoderma reesei; 2: Fusarium oxysporum; 3: Rhizopus oligosporum; 4: household environmental isolated; 5: Aspergillus niger; 6: bread contamination environmental isolate. Panel A: 150 μg/ml of peptidic antifungal composition with six histidine amino-terminal residues. Panel B: 150 μg/ml of peptidic antifungal composition with six histidine amino-terminal residues pre-treated for 10 minutes at 90° C. Panel C: 175 μg/ml of peptidic antifungal composition fused to a carrier protein. Panel D: negative control without peptidic antifungal composition.
Antifungal peptide having an amino acid sequence as set forth in SEQ ID NO: 1 (Table 1) was genetically fused to 6 amino-terminal histidine residues, expressed and produced in a recombinant manner in Escherichia coli, and after cell lysis, peptide purified using immobilized metal affinity chromatography (IMAC) with nickel resin. A second variant of antifungal peptide having an amino acid sequence as set forth in SEQ ID NO: 1 was also generated, fusing the antifungal peptide to a carrier protein. […] Fungal inhibition was then assessed in agar plates containing embedded antifungal peptides, incubating 2 days at 30° C. […]

[2] = test system: Aspergillus niger; assay: Agar dilution assay, inhibition of mycelial growth from spores; assay type: cell-based; conditions: fused to carrier solubility protein
Text: FIG. 8. Agar dilution assay to assess the antifungal activity of the peptide-protein fusion SEQ ID NO: 1-MBP against Aspergillus niger. Left, representative images of agar dilution assays performed with serial dilutions of antifungal peptide-MBP fusions added to agar before solidification. Assays tested for the inhibition of mycelial growth from A. niger spores. Protein storage buffer was used as a negative control for growth inhibition, and Zeocin was used as positive control. Right, IC50 values for the peptide-protein fusion SEQ ID NO: 1-MBP. Aggregated results from up to three independent experiments were used to interpolate IC50 from the fitted curve.
FIGS. 9A-9B. Agar dilution assay comparing the antifungal activity of the peptide-protein fusions SEQ ID NO: 28-MBP and SEQ ID NO: 29-MBP against Aspergillus niger. FIG. 9A: Representative images of agar dilution assays performed with serial dilutions of antifungal peptide-MBP fusions added to agar before solidification. Assays tested for the inhibition of mycelial growth from A. niger spores. […]
To further test the versatility of antifungal peptides, these were genetically fused to a variety of different carrier solubility proteins, and their antifungal activity tested. […] Mycelium length was then estimated and analyzed (FIGS. 3, 4, and 5). […]

| Sequence | fungal growth in agar plates compared with control ([1]; six histidine amino-terminal residues, 2 days at 30° C.) | activity after pre-incubation at 90° C. (thermostability) ([1]; pre-treated for 10 minutes at 90° C.) | potency at sub-MIC concentrations (reflected in the IC50), comparison of the three peptides [2] |
| --- | --- | --- | --- |
| VGECVRGRCPSGMCCSQFGYCGKGPKYCGR (not fully specified (N-terminus); cysteine pairing not given here) [SEQ ID NO: 1, tested genetically fused to 6 amino-terminal histidine residues, produced recombinantly in Escherichia coli] | impacts the growth of all fungi when compared with the control condition, although to a lesser extent with the environmental fungal isolates | does not impair its activity | – |
| KRCGSQAGCPNGHCCSQYGFCGFGPEYCGRG [SEQ ID NO: 29] | – | – | highest potency |
